Experimental findings from US11623922B2, “Compounds” (INFLAZOME LIMITED, priority 2017, dated 2023) are described below.

The target in data set [1] is T1, NLRP3 (Homo sapiens, UniProt Q96P20). Description: THP-1 cells pyroptosis assay. Set-up: Seed THP-1 cells (25,000 cells/well) containing 1.0 μg/ml LPS in 40 μl of RPMI medium; host or cells: THP-1 cells. As to conditions: NLRP3 inhibitory activity, 1.0 μg/ml LPS, nigericin 5 μM, resazurin readout. The format is cell-based. The procedure: The cells were routinely passaged and grown to confluency (˜10^6 cells/ml). On the day of the experiment, THP-1 cells were harvested and resuspended into RPMI medium (without FBS). The cells were then counted and viability (>90%) checked by Trypan blue (Sigma #T8154). […] To this diluted cell solution was added LPS (Sigma #L4524) to give a 1 μg/ml Final Assay Concentration (FAC). 40 μl of the final preparation was aliquoted into each well of a 96-well plate. The plate thus prepared was used for compound screening.
T1 sequence (Q96P20 whole entry): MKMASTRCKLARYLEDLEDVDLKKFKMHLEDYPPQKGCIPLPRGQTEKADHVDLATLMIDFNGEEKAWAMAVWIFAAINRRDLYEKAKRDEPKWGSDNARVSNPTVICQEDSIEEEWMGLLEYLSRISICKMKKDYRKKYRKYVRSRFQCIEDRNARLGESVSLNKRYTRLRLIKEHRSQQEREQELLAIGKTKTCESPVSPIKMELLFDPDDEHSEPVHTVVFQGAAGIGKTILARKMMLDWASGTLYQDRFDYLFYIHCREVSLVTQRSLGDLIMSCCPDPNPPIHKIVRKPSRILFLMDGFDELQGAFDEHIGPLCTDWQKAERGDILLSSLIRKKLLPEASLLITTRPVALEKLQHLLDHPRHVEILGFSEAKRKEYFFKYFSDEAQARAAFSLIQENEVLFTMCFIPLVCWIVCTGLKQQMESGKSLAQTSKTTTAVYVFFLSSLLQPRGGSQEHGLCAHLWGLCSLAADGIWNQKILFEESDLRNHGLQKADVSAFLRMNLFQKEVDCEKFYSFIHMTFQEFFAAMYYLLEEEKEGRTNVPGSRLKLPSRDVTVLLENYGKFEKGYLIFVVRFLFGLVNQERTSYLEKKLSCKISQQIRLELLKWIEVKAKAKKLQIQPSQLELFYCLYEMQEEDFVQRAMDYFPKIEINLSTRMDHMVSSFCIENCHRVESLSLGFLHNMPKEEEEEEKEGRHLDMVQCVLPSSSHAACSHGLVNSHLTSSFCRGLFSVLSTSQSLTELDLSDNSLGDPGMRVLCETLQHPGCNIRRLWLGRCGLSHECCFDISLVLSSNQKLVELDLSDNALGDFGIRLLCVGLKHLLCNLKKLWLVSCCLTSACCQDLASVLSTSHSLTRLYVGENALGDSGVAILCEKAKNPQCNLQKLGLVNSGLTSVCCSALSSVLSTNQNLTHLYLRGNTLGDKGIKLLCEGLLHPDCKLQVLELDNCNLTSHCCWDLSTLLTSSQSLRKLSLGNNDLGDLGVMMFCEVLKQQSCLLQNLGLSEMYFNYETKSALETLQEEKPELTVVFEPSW
The following method step-by-step assay was followed for compound screening. • 1. […] Incubate for 3 hrs at 37° C. in 5% CO2 • 4. Add 5 μl nigericin (Sigma #N7143) (FAC 5 μM) to all wells • 5. Incubate for 1 hr at 37° C. and 5% CO2 • 6. At the end of the incubation period, spin plates at 300×g for 3 mins and remove supernatant • 7. Then add 50 μl of resazurin (Sigma #R7017) (FAC 100 μM resazurin in RPMI medium without FBS) and incubate plates for a further 1-2 hrs at 37° C. and 5% CO2 • 8. […] IC50 data is fitted to a non-linear regression equation (log inhibitor vs response-variable slope 4-parameters)
Background: The colour change of resazurin is a common sign of viable cells or microbes.

Data set [2] has as its target T1, NLRP3. Description: Human whole blood IL1β release assay. Set-up: Plate out 80 μl of whole blood containing 1 μg/ml of LPS in 96-well, clear bottom cell culture plate; from tissue; host or cells: human whole blood from healthy donors. As to conditions: NLRP3 inhibitory activity, 1 μg/ml LPS, nigericin 10 μM, IL-1β by AlphaLisa, read-out: HWB IC50. The format is cell-based. The protocol: For systemic delivery, the ability to inhibit NLRP3 when the compounds are present within the bloodstream is of great importance. For this reason, the NLRP3 inhibitory activity of a number of compounds in human whole blood was investigated in accordance with the following protocol.
Human whole blood in Li-heparin tubes was obtained from healthy donors from a volunteer donor panel. • 1. […] Incubate for 3 hrs at 37° C., 5% CO2 • 4. Add 10 μl nigericin (Sigma #N7143) (10 μM FAC) to all wells • 5. Incubate for 1 hr at 37° C., 5% CO2 • 6. At the end of the incubation period, spin plates at 300×g for 5 mins to pellet cells and remove 20 μl of supernatant and add to 96-well v-bottom plates for IL-1β analysis (note: these plates containing the supernatants can be stored at −80° C. to be analysed at a later date) • 7. IL-1β was measured according to the manufacturer protocol (Perkin Elmer-AlphaLisa IL-1 Kit AL220F-5000) • 8. IC50 data is fitted to a non-linear regression equation (log inhibitor vs response-variable slope 4-parameters)
Background: Bead proximity is the source of the signal in Alpha formats.

A short description of data set [3]: PK protocol, intravenous administration in rats. In kind it is in vivo. As to conditions: rat, 1 mg/kg, male Sprague Dawley rats, plasma; for Vd: read-out: Vdss. The protocol: Pharmacokinetic parameters were determined in male Sprague Dawley rats (Vital River Laboratory Animal Technology Co Ltd, Beijing, China, 7-9 weeks old). Animals were individually housed during the study and maintained under a 12 h light/dark cycle. Animals had free access to food and water.
For intravenous administration, compounds were formulated as a solution in DMSO:PBS [10:90] in 2 mL/kg dosing volume and administered via tail vein.
Serial blood samples (about 200 μL) were taken from each animal at each of 8 time-points post dose (0.083, 0.25, 0.5, 1, 2, 4, 8 and 24 h). Samples were held on ice for no longer than 30 minutes before centrifugation (5,696 rpm (3,000 g) for 15 minutes) for plasma generation. Plasma was frozen on dry ice prior to bioanalysis. PK parameters were generated from LC-MS/MS data using Phoenix WinNonlin 6.3 software.

What is called IC50 is the midpoint of a concentration-inhibition curve. As for “5-(Azetidin-1-ylmethyl)-N-((4-fluoro-2,6-diisopropylphenyl) carbamoyl)-1-methyl-1H-pyrazole-3-sulfonimidamide [Example 23]”, the 50% inhibitory concentration (IC50) at NLRP3 [1] is < 100 nM; on NLRP3 [2], < 5000 nM.

For orientation: AUC means concentration integrated over time. A low value points to less exposure. One may read the clearance as the volume of plasma or blood freed of the substance per unit of time. What is called half-life is how long it takes for the measured level to halve. On to `COc1cc(-c2ccc3c(c2NC(=O)NS(=N)(=O)c2ccn(C(C)C)n2)CCC3)ccn1` (racemic) [Example 14, 1-Isopropyl-N-((5-(2-methoxypyridin-4-yl)-2,3-dihydro-1H-inden-4-yl)carbamoyl)-1H-pyrazole-3-sulfonimidamide], for which, in data set [3], the AUC worked out at 1740 ng·h/mL, the clearance stood at 9.6 mL/min/kg, the half-life was 0.9 h and the Vd is 0.34 L/kg. The concentration for half-maximal inhibition (IC50) on NLRP3 [1] is < 100 nM. Also, on NLRP3 [2], the IC50 is < 500 nM.

Turning to `CC(C)n1cc(Cl)c(S(=N)(=O)NC(=O)Nc2c3c(cc4c2CCC4)CCC3)n1` (centres unmarked) [Example 2, 4-Chloro-N-((1,2,3,5,6,7-hexahydro-s-indacen-4-yl)carbamoyl)-1-iso-propyl-1H-pyrazole-3-sulfonimidamide], the half-inhibitory concentration (IC50) on NLRP3 [1] was < 100 nM; at NLRP3 [2] it was < 5000 nM.

Turning to `C[C@@H](O)Cn1ccc(S(=N)(=O)NC(=O)Nc2c3c(cc4c2CCC4)CCC3)n1` (stereo partly drawn) [Example 3, N-((1,2,3,5,6,7-Hexahydro-s-indacen-4-yl)carbamoyl)-1-((R)-2-hydroxypropyl)-1H-pyrazole-3-sulfonimidamide], in data set [3], the AUC was determined as 2250 ng·h/mL, the clearance came to 7.4 mL/min/kg, the half-life was 2.7 h and the Vd was 0.75 L/kg. The IC50 at NLRP3 [1] is < 100 nM. Further, the IC50 on NLRP3 [2] was < 500 nM.

For `CCN(CC)CCCS(=N)(=O)NC(=O)Nc1c2c(cc3c1CCC3)CCC2` (centres unmarked) [Example 6, 3-(Diethylamino)-N-((1,2,3,5,6,7-hexahydro-s-indacen-4-yl)carbamoyl) propane-1-sulfonimidamide], the half-inhibitory concentration (IC50) at NLRP3 [1] is < 10000 nM.

Turning to `CC(C)N1CC(S(=N)(=O)NC(=O)Nc2c3c(cc4c2CCC4)CCC3)C1` (centres unmarked) [Example 7, N-((1,2,3,5,6,7-Hexahydro-s-indacen-4-yl)carbamoyl)-1-isopropyl-azetidine-3-sulfonimidamide], the 50% inhibitory concentration (IC50) on NLRP3 [1] and at NLRP3 [2] was < 5000 nM throughout.

As to `CN(C)CCn1ccc(S(=N)(=O)NC(=O)Nc2c3c(cc4c2CCC4)CCC3)n1` (centres unmarked) [Example 10, 1-(2-(Dimethylamino)ethyl)-N-((1,2,3,5,6,7-hexahydro-s-indacen-4-yl)carbamoyl)-1H-pyrazole-3-sulfonimidamide], the IC50 against NLRP3 [1] and on NLRP3 [2] was < 500 nM throughout.

For the compound `CC(C)c1cc(F)cc(-c2ccnc(C#N)c2)c1NC(=O)NS(=N)(=O)c1nn(C(C)C)cc1Cl` (centres unmarked) [Example 12, 4-Chloro-N-((2-(2-cyanopyridin-4-yl)-4-fluoro-6-isopropylphenyl)carbamoyl)-1-isopropyl-1H-pyrazole-3-sulfonimidamide], the half-inhibitory concentration (IC50) on NLRP3 [1] is < 100 nM; at NLRP3 [2], < 500 nM.

As to `COc1cc(-c2cc(F)cc(C(C)C)c2NC(=O)NS(=N)(=O)c2nn(C(C)C)cc2Cl)ccn1` (centres unmarked) [Example 13, 4-Chloro-N-((4-fluoro-2-isopropyl-6-(2-methoxypyridin-4-yl)phenyl)carbamoyl)-1-isopropyl-1H-pyrazole-3-sulfonimidamide], the half-maximal inhibitory concentration (IC50) was < 100 nM against NLRP3 [1] and < 1000 nM on NLRP3 [2].

For `CC(C)c1cc(F)cc(-c2ccnc(C#N)c2)c1NC(=O)NS(=N)(=O)c1ccn(C(C)C)n1` (centres unmarked) [Example 15, N-((2-(2-Cyanopyridin-4-yl)-4-fluoro-6-isopropylphenyl)carbamoyl)-1-isopropyl-1H-pyrazole-3-sulfonimidamide], the IC50 on NLRP3 [1] and at NLRP3 [2] was < 1000 nM each time.

As for `COc1cc(-c2cc(F)cc(C(C)C)c2NC(=O)NS(=N)(=O)c2ccn(C(C)C)n2)ccn1` (centres unmarked) [Example 16, N-((4-Fluoro-2-isopropyl-6-(2-methoxypyridin-4-yl)phenyl)carbamoyl)-1-isopropyl-1H-pyrazole-3-sulfonimidamide], the IC50 on NLRP3 [1] is < 100 nM; on NLRP3 [2], < 1000 nM.

For `COc1cc(-c2ccc3c(c2NC(=O)NS(=N)(=O)c2ccn(C[C@@H](C)O)n2)CCC3)ccn1` (stereo partly drawn) [Example 17, 1-((R)-2-Hydroxypropyl)-N-((5-(2-methoxypyridin-4-yl)-2,3-dihydro-1H-inden-4-yl)carbamoyl)-1H-pyrazole-3-sulfonimidamide], the 50% inhibitory concentration (IC50) was < 100 nM on NLRP3 [1] and < 500 nM on NLRP3 [2].

For `COc1cc(-c2cc(F)cc(C(C)C)c2NC(=O)NS(=N)(=O)c2ccn(C[C@@H](C)O)n2)ccn1` (stereo partly drawn) [Example 19, N-((4-Fluoro-2-isopropyl-6-(2-methoxypyridin-4-yl)phenyl)carbamoyl)-1-((R)-2-hydroxypropyl)-1H-pyrazole-3-sulfonimidamide], the half-maximal inhibitory concentration (IC50) at NLRP3 [1] is < 100 nM; at NLRP3 [2], < 1000 nM.

Regarding `CC(c1cc(S(=N)(=O)NC(=O)Nc2c3c(cc4c2CCC4)CCC3)nn1C)N1CCC1` (centres unmarked) [Example 22, 5-(1-(Azetidin-1-yl)ethyl)-N-((1,2,3,5,6,7-hexahydro-s-indacen-4-yl)carbamoyl)-1-methyl-1H-pyrazole-3-sulfonimidamide], the 50% inhibitory concentration (IC50) against NLRP3 [1] was < 100 nM; at NLRP3 [2], < 500 nM.

Regarding `CC(C)n1ccc(S(=N)(=O)NC(=O)Nc2c(-c3ccncc3)cc(F)c3c2CCC3)n1` (centres unmarked) [Example 24, N-((7-Fluoro-5-(pyridin-4-yl)-2,3-dihydro-1H-inden-4-yl)carbamoyl)-1-isopropyl-1H-pyrazole-3-sulfonimidamide], the IC50 was < 100 nM against NLRP3 [1] and < 500 nM at NLRP3 [2].

With `C[C@@H](O)Cn1ccc(S(=N)(=O)NC(=O)Nc2c(-c3ccncc3)cc(F)c3c2CCC3)n1` (stereo partly drawn) [Example 25, N-((7-Fluoro-5-(pyridin-4-yl)-2,3-dihydro-1H-inden-4-yl)carbamoyl)-1-((R)-2-hydroxypropyl)-1H-pyrazole-3-sulfonimidamide], the figures for the IC50 against NLRP3 [1] and on NLRP3 [2] were < 100 nM and < 500 nM, respectively.

Take `CC(C)n1cc(Cl)c(S(=N)(=O)NC(=O)Nc2c(-c3ccncc3)cc(F)c3c2CCC3)n1` (centres unmarked) [Example 26, 4-Chloro-N-((7-fluoro-5-(pyridin-4-yl)-2,3-dihydro-1H-inden-4-yl)carbamoyl)-1-isopropyl-1H-pyrazole-3-sulfonimidamide]: the results for the IC50 at NLRP3 [1] and at NLRP3 [2] were < 100 nM and < 500 nM, respectively.

As to `COc1cc(-c2ccc3c(c2NC(=O)N[S@@](=N)(=O)c2ccn(C(C)C)n2)CCC3)ccn1` [Example 27, (R)-1-Isopropyl-N-((5-(2-methoxypyridin-4-yl)-2,3-dihydro-1H-inden-4-yl)carbamoyl)-1H-pyrazole-3-sulfonimidamide], the concentration for half-maximal inhibition (IC50) at NLRP3 [1] is < 100 nM; on NLRP3 [2], < 500 nM.

In the case of `COc1cc(-c2ccc3c(c2NC(=O)N[S@](=N)(=O)c2ccn(C(C)C)n2)CCC3)ccn1` [Example 28, (S)-1-Isopropyl-N-((5-(2-methoxypyridin-4-yl)-2,3-dihydro-1H-inden-4-yl)carbamoyl)-1H-pyrazole-3-sulfonimidamide], the figures for the IC50 against NLRP3 [1] and at NLRP3 [2] were < 1000 nM and < 5000 nM, respectively.

Turning to “N-((2-(2-Cyanopyridin-4-yl)-4-fluoro-6-isopropylphenyl)carbamoyl)-1-((R)-2-hydroxypropyl)-1H-pyrazole-3-sulfonimidamide [Example 18]”, the IC50 on NLRP3 [1] and at NLRP3 [2] was < 500 nM in each case.
